Reference: ChEMBL document CHEMBL1201861, “Genomics of Drug Sensitity in Cancer screening data, Wellcome Trust Sanger Institute”

Legend:
Assay in all cases: cells
MC116 = assay type: functional, cell-based; conditions: Homo sapiens;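 note: growth inhibition of MC116 cells, read out with a cell viability assay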
Description: SANGER: Inhibition of human MC116 cell growth in a cell viability assay.

HCE-4 = assay type: functional, cell-based, Homo sapiens; conditions: Homo sapiens, HCE-4;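 note: cell viability assay measuring inhibition of growth in the human HCE-4 cell line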
Description: SANGER: Inhibition of human HCE-4 cell growth in a cell viability assay.

SK-NEP-1 = assay type: functional, cell-based; conditions: Homo sapiens;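 note: growth inhibition of human SK-NEP-1 cells, read out by a cell viability assay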
Description: SANGER: Inhibition of human SK-NEP-1 cell growth in a cell viability assay.

DEL = assay type: functional, cell-based; conditions: Homo sapiens;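 note: growth inhibition of the human DEL cell line, read out with a cell viability assay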
Description: SANGER: Inhibition of human DEL cell growth in a cell viability assay.

LB2241-RCC = assay type: functional, cell-based, Homo sapiens; conditions: Homo sapiens, LB2241-RCC;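 note: cell viability assay measuring how strongly the cultured human renal carcinoma line is prevented from growing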
Description: SANGER: Inhibition of human LB2241-RCC cell growth in a cell viability assay.

COLO-679 = assay type: functional, cell-based, Homo sapiens; conditions: Homo sapiens, COLO-679
Description: SANGER: Inhibition of human COLO-679 cell growth in a cell viability assay.

SW13 = assay type: functional, cell-based, Homo sapiens; conditions: Homo sapiens, SW13;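 note: IC50 is inhibition of SW13 cell growth, read out with a cell viability assay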
Description: SANGER: Inhibition of human SW13 cell growth in a cell viability assay.

MHH-PREB-1 = assay type: functional, cell-based; conditions: Homo sapiens;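 note: cell viability assay measuring inhibition of proliferation of human MHH-PREB-1 cells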
Description: SANGER: Inhibition of human MHH-PREB-1 cell growth in a cell viability assay.

HTC-C3 = assay type: functional, cell-based, Homo sapiens; conditions: Homo sapiens, HTC-C3;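 note: inhibition of cell growth, read out with a cell viability assay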
Description: SANGER: Inhibition of human HTC-C3 cell growth in a cell viability assay.

HL-60 = assay type: functional, cell-based; conditions: Homo sapiens;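 note: growth inhibition of human HL-60 cells, read out with a cell viability assay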
Description: SANGER: Inhibition of human HL-60 cell growth in a cell viability assay.

ATN-1 = assay type: functional, cell-based; conditions: Homo sapiens;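 note: growth inhibition of human ATN-1 cells, read out with a cell viability assay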
Description: SANGER: Inhibition of human ATN-1 cell growth in a cell viability assay.

MDA-MB-175-VII = assay type: functional, cell-based, Homo sapiens; conditions: Homo sapiens, MDA-MB-175-VII
A498 = assay type: functional, cell-based, Homo sapiens; conditions: Homo sapiens, A498;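 note: growth inhibition of human A498 cells, read out with a cell viability assay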
Description: SANGER: Inhibition of human A498 cell growth in a cell viability assay.

OAW-42 = assay type: functional, cell-based, Homo sapiens; conditions: Homo sapiens, OAW-42;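 note: growth inhibition of OAW-42 cells, read out with a cell viability assay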
Description: SANGER: Inhibition of human OAW-42 cell growth in a cell viability assay.

LB373-MEL-D = assay type: functional, cell-based, Homo sapiens; conditions: Homo sapiens, LB373-MEL-D;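 note: growth inhibition of the cell line, read out in a cell viability assay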
Description: SANGER: Inhibition of human LB373-MEL-D cell growth in a cell viability assay.

EW-24 = assay type: functional, cell-based; conditions: Homo sapiens;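 note: human EW-24 cancer cell line, growth inhibition read out via a cell viability assay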
Description: SANGER: Inhibition of human EW-24 cell growth in a cell viability assay.

RPMI-8226 = assay type: functional, cell-based; conditions: Homo sapiens
Description: SANGER: Inhibition of human RPMI-8226 cell growth in a cell viability assay.

IST-SL1 = assay type: functional, cell-based, Homo sapiens; conditions: Homo sapiens, IST-SL1;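 note: growth inhibition of human IST-SL1 cells, read out with a cell viability assay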
Description: SANGER: Inhibition of human IST-SL1 cell growth in a cell viability assay.

ML-2 = assay type: functional, cell-based; conditions: Homo sapiens;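 note: growth inhibition of ML-2 cells, measured with a cell viability readout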
Description: SANGER: Inhibition of human ML-2 cell growth in a cell viability assay.

SCC-15 = assay type: functional, cell-based, Homo sapiens; conditions: Homo sapiens, SCC-15;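 note: growth inhibition of SCC-15 cells, read out with a cell viability assay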
Description: SANGER: Inhibition of human SCC-15 cell growth in a cell viability assay.

A253 cell line = assay type: functional, cell-based, Homo sapiens; conditions: Homo sapiens, A253;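 note: growth inhibition of A253 cells, read out with a cell viability assay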
Description: SANGER: Inhibition of human A253 cell growth in a cell viability assay.

HC-1 = assay type: functional, cell-based; conditions: Homo sapiens;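 note: growth inhibition of HC-1 cells measured by a cell viability assay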
Description: SANGER: Inhibition of human HC-1 cell growth in a cell viability assay.

TGW = assay type: functional, cell-based; conditions: Homo sapiens;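 note: growth inhibition of human TGW cells, read out with a cell viability assay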
Description: SANGER: Inhibition of human TGW cell growth in a cell viability assay.

SHP77 = assay type: functional, cell-based, Homo sapiens, SHP-77; conditions: Homo sapiens, SHP77;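 note: growth inhibition of human SHP-77 cells measured by a cell viability assay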
Description: SANGER: Inhibition of human SHP-77 cell growth in a cell viability assay.

LB831-BLC = assay type: functional, cell-based, Homo sapiens; conditions: Homo sapiens, LB831-BLC;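 note: growth inhibition of LB831-BLC cells, read out with a cell viability assay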
Description: SANGER: Inhibition of human LB831-BLC cell growth in a cell viability assay.

MSTO-211H = assay type: functional, cell-based, Homo sapiens; conditions: Homo sapiens, MSTO-211H
Description: SANGER: Inhibition of human MSTO-211H cell growth in a cell viability assay.

SNU-449 = assay type: functional, cell-based, Homo sapiens; conditions: Homo sapiens, SNU-449
Description: SANGER: Inhibition of human SNU-449 cell growth in a cell viability assay.

Becker = assay type: functional, cell-based, Homo sapiens; conditions: Homo sapiens, Becker;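 note: growth inhibition of Becker cells, read out with a cell viability assay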
Description: SANGER: Inhibition of human Becker cell growth in a cell viability assay.

CAL-62 = assay type: functional, cell-based, Homo sapiens; conditions: Homo sapiens, CAL-62;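 note: growth inhibition of CAL-62 cells, read out with a cell viability assay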
Description: SANGER: Inhibition of human CAL-62 cell growth in a cell viability assay.

JVM-3 = assay type: functional, cell-based; conditions: Homo sapiens;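 note: growth inhibition of human JVM-3 cells, read out with a cell viability assay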
Description: SANGER: Inhibition of human JVM-3 cell growth in a cell viability assay.

NCI-H1651 = assay type: functional, cell-based, Homo sapiens; conditions: Homo sapiens, NCI-H1651;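 note: Read-out is a cell viability assay, with IC50 expressing inhibition of NCI-H1651 cell growth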
Description: SANGER: Inhibition of human NCI-H1651 cell growth in a cell viability assay.

SF-539 = assay type: functional, cell-based, Homo sapiens; conditions: Homo sapiens, SF-539;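 note: Read-out is a cell viability assay, with IC50 reflecting inhibition of cell growth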
Description: SANGER: Inhibition of human SF539 cell growth in a cell viability assay.

SW1573 = assay type: functional, cell-based, Homo sapiens; conditions: Homo sapiens, SW1573;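 note: growth inhibition of SW1573 cells, read out with a cell viability assay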
Description: SANGER: Inhibition of human SW1573 cell growth in a cell viability assay.

EW-3 = assay type: functional, cell-based; conditions: Homo sapiens;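 note: cell viability assay read-out, IC50 reflects inhibition of growth of the EW-3 cells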
Description: SANGER: Inhibition of human EW-3 cell growth in a cell viability assay.

BB49-HNC = assay type: functional, cell-based, Homo sapiens; conditions: Homo sapiens, BB49-HNC;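 note: cell viability assay read-out, reported as inhibition of BB49-HNC cell growth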
Description: SANGER: Inhibition of human BB49-HNC cell growth in a cell viability assay.

SK-UT-1 = assay type: functional, cell-based, Homo sapiens; conditions: Homo sapiens, SK-UT-1;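 note: growth inhibition of SK-UT-1 cells, measured by a cell viability assay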
Description: SANGER: Inhibition of human SK-UT-1 cell growth in a cell viability assay.

647-V = assay type: functional, cell-based, Homo sapiens; conditions: Homo sapiens, 647-V;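 note: growth inhibition of 647-V cells, read out with a cell viability assay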
Description: SANGER: Inhibition of human 647-V cell growth in a cell viability assay.

P30-OHK = assay type: functional, cell-based; conditions: Homo sapiens;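 note: growth inhibition of the P30-OHK cell line, read out with a cell viability assay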
Description: SANGER: Inhibition of human P30-OHK cell growth in a cell viability assay.

LS-513 = assay type: functional, cell-based, Homo sapiens; conditions: Homo sapiens, LS-513
Description: SANGER: Inhibition of human LS-513 cell growth in a cell viability assay.

NY = assay type: functional, cell-based, Homo sapiens; conditions: Homo sapiens, NY
Description: SANGER: Inhibition of human NY cell growth in a cell viability assay.

G-401 = assay type: functional, cell-based, Homo sapiens; conditions: Homo sapiens, G-401
Description: SANGER: Inhibition of human G-401 cell growth in a cell viability assay.

H4 = assay type: functional, cell-based; conditions: Homo sapiens
Description: SANGER: Inhibition of human H4 cell growth in a cell viability assay.

BCPAP = assay type: functional, cell-based, Homo sapiens; conditions: Homo sapiens, BCPAP;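 note: growth inhibition of BCPAP cells, read out in a cell viability assay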
Description: SANGER: Inhibition of human BCPAP cell growth in a cell viability assay.

A4-Fuk = assay type: functional, cell-based; conditions: Homo sapiens;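 note: growth inhibition of A4-Fuk cells, read out by a cell viability assay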
Description: SANGER: Inhibition of human A4-Fuk cell growth in a cell viability assay.

NCI-H1755 = assay type: functional, cell-based, Homo sapiens; conditions: Homo sapiens, NCI-H1755;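 note: cell viability readout used to measure growth inhibition of NCI-H1755 cells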
Description: SANGER: Inhibition of human NCI-H1755 cell growth in a cell viability assay.

YKG-1 = assay type: functional, cell-based, Homo sapiens; conditions: Homo sapiens, YKG-1;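 note: cell growth inhibition, read out with a viability assay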
Description: SANGER: Inhibition of human YKG-1 cell growth in a cell viability assay.

HuCCT-1 = assay type: functional, cell-based, Homo sapiens, HuCCT1; conditions: Homo sapiens, HuCCT-1;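 note: growth inhibition of HuCCT-1 cells, read out by a cell viability assay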
Description: SANGER: Inhibition of human HuCCT1 cell growth in a cell viability assay.

NCI-H1092 = assay type: functional, cell-based; conditions: Homo sapiens;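 note: cell growth inhibition measured with a cell viability assay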
Description: SANGER: Inhibition of human NCI-H1092 cell growth in a cell viability assay.

TCC-SUP = assay type: functional, cell-based, Homo sapiens; conditions: Homo sapiens, TCC-SUP;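 note: growth inhibition of TCC-SUP cells, read out with a cell viability assay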
Description: SANGER: Inhibition of human TCCSUP cell growth in a cell viability assay.

SJSA-1 = assay type: functional, cell-based, Homo sapiens; conditions: Homo sapiens, SJSA-1;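 note: growth inhibition of human SJSA-1 cells, read out through a cell viability measurement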
Description: SANGER: Inhibition of human SJSA-1 cell growth in a cell viability assay.

NCI-H209 = assay type: functional, cell-based; conditions: Homo sapiens;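 note: growth inhibition of human NCI-H209 cells, measured by a cell viability assay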
Description: SANGER: Inhibition of human NCI-H209 cell growth in a cell viability assay.

GR-ST = assay type: functional, cell-based; conditions: Homo sapiens
Description: SANGER: Inhibition of human GR-ST cell growth in a cell viability assay.

Cn1cncc1[C@@](N)(c1ccc(Cl)cc1)c1ccc2c(c1)c(-c1cccc(Cl)c1)cc(=O)n2C [TIPIFARNIB]
IC50 (MC116): 4.03 µM
IC50 (HCE-4): 3.04 µM
IC50 (SK-NEP-1): 9.94 µM
IC50 (DEL): 1.03 µM
IC50 (LB2241-RCC): 6.16 µM
IC50 (COLO-679): 0.985 µM
IC50 (SW13): 3.6 µM
IC50 (MHH-PREB-1): 3.3 µM
IC50 (HTC-C3): 4.83 µM
IC50 (HL-60): 6.93 µM
IC50 (ATN-1): 2.54 µM
IC50 (MDA-MB-175-VII): > 16 µM
IC50 (A498): > 16 µM
IC50 (OAW-42): 0.956 µM
IC50 (LB373-MEL-D): 8.85 µM
IC50 (EW-24): > 16 µM
IC50 (RPMI-8226): 9.03 µM
IC50 (IST-SL1): > 16 µM
IC50 (ML-2): < 0.0625 µM
IC50 (SCC-15): 10.8 µM
IC50 (A253 cell line): 10.5 µM
IC50 (HC-1): 1.75 µM
IC50 (TGW): > 16 µM
IC50 (SHP77): 9.94 µM
IC50 (LB831-BLC): 2.64 µM
IC50 (MSTO-211H): > 16 µM
IC50 (SNU-449): 0.623 µM
IC50 (Becker): 6.4 µM
IC50 (CAL-62): 1.79 µM
IC50 (JVM-3): > 16 µM
IC50 (NCI-H1651): > 16 µM
IC50 (SF-539): > 16 µM
IC50 (SW1573): > 16 µM
IC50 (EW-3): > 16 µM
IC50 (BB49-HNC): 5.86 µM
IC50 (SK-UT-1): 4.86 µM
IC50 (647-V): 2.3 µM
IC50 (P30-OHK): 0.264 µM
IC50 (LS-513): > 16 µM
IC50 (NY): 1.93 µM
IC50 (G-401): 0.503 µM
IC50 (H4): 1.22 µM
IC50 (BCPAP): 1.32 µM
IC50 (A4-Fuk): 0.0206 µM
IC50 (NCI-H1755): > 16 µM
IC50 (YKG-1): 0.526 µM
IC50 (HuCCT-1): 4.31 µM
IC50 (NCI-H1092): > 16 µM
IC50 (TCC-SUP): 5.8 µM
IC50 (SJSA-1): > 16 µM
IC50 (NCI-H209): > 16 µM
IC50 (GR-ST): 2.87 µM
